Test results published in article PMC10060354, “Discovery of a small molecule ligand of FRS2 that inhibits invasion and tumor growth” (Cellular Oncology, 2022).
Read-outs that look alike come from different tables or passages of the source.

Assays:
human cancer cell lines = assay: CellTiter-Glo viability (2D culture or 3D spheroids), cell line panel; format: cell-based
Description: Cell viability was determined using CellTiter-Glo® 2D or 3D cell viability assays (#G9242, #G9682, Promega). 500 cells/25 µl were seeded in flat bottom (#781,091, Greiner bio-one) or U-low adhesion (#4516, Corning) 384-well plate, 24 h prior to treatment. Increasing concentrations of compounds are deposited on cells using a HP Digital Drug Dispenser with DMSO total volume normalization. After 48 h, the CellTiter-Glo® 2D or 3D reagent was added (volume/volume) following manufacturer’s instructions. Plates were incubated at RT (room temperature) under agitation for 30 min and luminescence representing the number of viable cells was quantified with a Cytation 3 imaging reader (BioTek®). Experiments were performed independently three times with three technical replicas each.

[1] = In vivo bioavailability / PK after 1 mg/kg IV or 10 mg/kg PO; set-up: species or system Male ICR mice
Description: In vivo bioavailability studies were performed by Pharmacology Discovery Services Taiwan, Ltd., (New Taipei City, Taiwan). Male ICR mice weighing 20—30 g were provided by BioLasco Taiwan (under Charles River Laboratories Licensee). Animals were acclimated for 3 days prior to use and were confirmed with good health. All animals were maintained in a hygienic environment with controlled temperature (20—24 °C), humidity (30%—70%) and 12 h light/dark cycles. Free access to sterilized standard lab diet [MFG (Oriental Yeast Co., Ltd., Japan)] and autoclaved tap water. A pharmacokinetic (PK) study was performed in male ICR mice following intravenous (IV) and oral (PO) administration of compound 7 and E12 and IV administration of the test compound 3.14. The three test compounds (7, E12 and 3.14) were formulated in 1% dimethyl sulfoxide (DMSO)/10% Solutol® HS-15/ phosphate buffered saline (PBS) at 0.2 mg/mL and 1 mg/mL for IV and PO administration, respectively. The dosing volumes were 5 ml/kg for IV and 10 ml/kg for PO. The dose was 1 mg/kg for IV and 10 mg/kg for PO routes.

ERK (pT202/Y204) = assay: Immunoblotting, ERK phosphorylation; format: cell-based, human; conditions: DAOY, SW780, M059K, SKOV3, AGS, DMS114 and RT-112 cells; 10 µM compound or 1 µM BGJ398
Description: (§1) Cells were serum starved o.n. and 10 µM compound or 1 µM (BGJ398) were added 3 h before stimulation with 100 ng/ml bFGF for 15 min. Cells were lysed in RIPA buffer containing protease inhibitor cocktail and lysates resolved by SDS-PAGE. Membranes were probed with primary antibodies against phospho-FRS2, FRS2, phospho-ERK1/2, ERK1/2, pAKT, AKT and tubulin. Integrated density of immuno-reactive bands was quantified using Adobe Photoshop CS3. Integrated densities of phospho bands relative to non-phospho bands of same protein were calculated and plotted as fold-change relative to untreated control conditions. Compounds and BGJ398 were added in DMSO and corresponding DMSO concentrations were used in control samples.

AGS = assay: SIA, collagen I invasion; format: cell-based; conditions: Homo sapiens, 100 ng/ml bFGF
Description: (§2) 1000—2500 cells/well in 100 μl were seeded in 96 well Corning® Spheroid microplate (CLS4520, Sigma-Aldrich) or in cell-repellent 96 well microplate (650,790, Greiner Bio-one). SIA and analysis was performed as described before. In brief: After spheroid formation (24 – 72 h after seeding), 70 µl medium was removed and replaced with the collagen mixture (2.5 mg/ml Pure Col Collagen I (Advanced Biomatrix)), DMEM 1x (from 10 × stock, Sigma, D2429) and 0.4% Sodium bicarbonate (Sigma, S8761)), resulting in a final collagen concentration of 1.75 mg/ml. Embedded spheroids were stimulated with bFGF (100 ng/ml if not otherwise stated), HGF (30 ng /ml) or EGF (20 ng/ml) and distance of invaded cells quantified 24 – 48 h after embedding. Compounds and BGJ398 were added in Dimethylsulfoxid (DMSO) and corresponding DMSO concentrations were used in control samples.

SKOV3 = assay: SIA, collagen I invasion; format: cell-based; conditions: Homo sapiens, SK-OV-3, 100 ng/ml bFGF
Description: as §2

[2] = system: FRS2 (Y436) phosphorylation; assay: Immunoblotting, FRS2 phosphorylation; format: cell-based, human; conditions: RT-112 cells
Description: as §1

[3] = system: bFGF-sensitive (M059K, RT-112, SW780) and bFGF-insensitive (SKOV3, AGS and HCT116) cell lines; assay: SIA, collagen I invasion in panel of human cancer cell models; format: cell-based; conditions: 10 µM
Description: as §2

DAOY cells = assay: SIA, EGF-induced cell invasion; format: cell-based, human; conditions: 10 µM
Description: as §2

[4] = male, ICR, mouse, plasma, 1 mg/kg, IV
[5] = male, ICR, mouse, plasma, 10 mg/kg, PO

O=[N+]([O-])c1c(Cl)cc(O)c2c1C1C=CCC1C(c1ccc(Cl)cc1)N2 (centres unmarked) [Compound 7]
reduction of viability (human cancer cell lines; DAOY, AGS and HCT116 cells, between 2.7 and 20 µM, 48 h): more than 50%
IC50 (human cancer cell lines; Homo sapiens, read-out: IC50 of cell viability, all lines): < 20 µM
AUC Extr (%) ([1]; 1 mg/kg, IV): 1.2%
AUC Extr (%) ([1]; 10 mg/kg, PO): 18.1%
AUC/D ([1]; 10 mg/kg, PO): 407 kg·ng·h/mL/mg
AUClast (H*ng/ml) ([1]; 10 mg/kg, PO): 3333 H*ng/ml
AUC(0-t) ([1]; male, ICR, mouse, plasma, iv, 1 mg/kg, IV, read-out: AUClast): 393 ng·h/mL
AUC(0-t) ([1]; male, ICR, mouse, plasma, iv, 1 mg/kg, mice, 1 mg/kg IV, read-out: AUClast after IV administration): 398 ng·h/mL
AUC(0-t) ([1]; male, ICR, mouse, plasma, po, 10 mg/kg, mice, 10 mg/kg PO, read-out: AUClast after PO administration): 3330 ng·h/mL
AUC(0-inf) [1, 4]: 398 ng·h/mL
MRT [1, 4]: 0.29 h
clearance [1, 4]: 42 mL/min/kg
half-life [1, 4]: 1.14 h
Vd ([1]; male, ICR, mouse, plasma, 1 mg/kg, IV, read-out: Vss): 0.7 L/kg
AUC(0-inf) [1, 5]: 4070 ng·h/mL
MRT [1, 5]: 4.71 h
Tmax [1, 5]: 0.5 h
bioavailability [1, 5]: 85%
half-life [1, 5]: 3.83 h
C0 ([1]; male, ICR, mouse, mice, 1 mg/kg IV, plasma, read-out: C0 after IV administration): 2870 ng/mL
Cmax ([1]; male, ICR, mouse, mice, 10 mg/kg PO, plasma, read-out: Cmax (oral bioavailability) after PO administration): 1400 ng/mL
CL1/2 after IV administration ([1]; mice, 1 mg/kg IV): 1.14 h
CL1/2 after PO administration ([1]; mice, 10 mg/kg PO): 3.83 h
basal and bFGF-induced phosphorylation of ERK (result in words) (ERK (pT202/Y204)): inhibited basal and bFGF-induced phosphorylation
EC50 (AGS): 4.66 µM
EC50 (SKOV3): 4.5 µM
basal and bFGF-induced phosphorylation of FRS2Y436 (result in words) [2]: reduced basal and bFGF-induced phosphorylation
collagen I invasion across cancer cell lines (result in words) [3]: inhibited collagen I invasion in both bFGF-sensitive and bFGF-insensitive cell lines
effect on EGF-induced cell invasion (result in words) (DAOY cells): only moderately reduced
